Assay results published in US20200369728A1, “PEPTIDOMIMETIC MACROCYCLES AND USES THEREOF” (Aileron Therapeutics, Inc., priority 2015, published 2020).
Bridge positions count the residues as written; N and C are the ends. Square brackets hold non-standard residues; d marks the D form. Peptide text beside a SMILES is read from it. R8 = C=CCCCCCC[C@@](C)(N)C(=O)O; S5 = C=CCCC[C@](C)(N)C(=O)O

Columns and labels:
SJSA-1 = test: Cell viability assay (MTT), SJSA-1; conditions: read-out: SJSA-1 EC50 (72 h); 72 h, MTT
SJSA-1 cells = test: Cell lysis by peptidomimetic macrocycles (LDH release); assay type: cell-based; conditions: SJSA-1, 1 h
Method in brief: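 SJSA-1 cells plated the day before, switched to RPMI with 1% FBS, then exposed 1 h at 37 °C to macrocycle at final 50 μM to 6.25 μM in 0.5% DMSO. LDH released into the supernatant was measured by kit. Controls: 0.5% DMSO (non-lytic), 10 μM melittin and 1% Triton X-100 (lytic).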

[1] = Circular dichroism (CD) analysis of alpha-helicity; assay type: physicochemical; conditions: for Molar Ellipticity TFE − Molar Ellipticity Benign / Molar Ellipticity 50% TFE (222 in 50% TFE) / Molar Ellipticity Benign (222 in 0% TFE): 222 nm; for Molar Ellipticity 50% TFE (222 in 50% TFE): CD buffer with 50% TFE; for Molar Ellipticity 50% TFE (222 in 50% TFE) / Molar Ellipticity Benign (222 in 0% TFE): 0.05 mg/ml, 4° C.; for Molar Ellipticity Benign (222 in 0% TFE): benign CD buffer (20 mM phosphoric acid, pH 2); for % Helix benign compared to 50% TFE parent (CD): benign buffer
Protocol: Peptide solutions were analyzed by CD spectroscopy using a Jasco J-815 spectropolarimeter (Jasco Inc., Easton, Md.) with the Jasco Spectra Manager Ver. 2 system software. A Peltier temperature controller was used to maintain temperature control of the optical cell. Results are expressed as mean molar ellipticity (deg cm^2 dmol^−1) as calculated from the equation [0]=θobs·MRW/10*l*c where θobs is the observed ellipticity in millidegrees, MRW is the mean residue weight of the peptide (peptide molecular weight/number of residues), 1 is the optical path length of the cell in centimeters, and c is the peptide concentration in mg/ml. Peptide concentrations were determined by amino acid analysis. Stock solutions of peptides were prepared in benign CD buffer (20 mM phosphoric acid, pH 2). The stocks were used to prepare peptide solutions of 0.05 mg/ml in either benign CD buffer or CD buffer with 50% trifluoroethanol (TFE) for analyses in a 10 mm pathlength cell. Variable wavelength measurements of peptide solutions were scanned at 4° C. from 195 to 250 nm, in 0.2 nm increments, and a scan rate 50 nm per minute. The average of six scans was reported.

RKO = test: Cell viability assay (MTT), RKO; conditions: read-out: RKO EC50 (72 h)
Caspase 3 = Caspase 3 detection assay in SJSA1 cells; assay type: cell-based; conditions: SJSA1, 48 h, Caspase 3 activation over DMSO-treated cells

CC(=O)N[C@@H](CC(C)C)C(=O)N[C@H](C(=O)N[C@@H](Cc1ccccc1)C(=O)N[C@]1(C)CCCCCCC=CCCC[C@@](C)(C(=O)N[C@@H](C)C(=O)N[C@@H](C)C(=O)N[C@@H](C)C(=O)N[C@H](C)C(=O)N[C@@H](C)C(=O)N[C@H](C)C(N)=O)NC(=O)[C@H](CC(C)C)NC(=O)[C@H](CCC(N)=O)NC(=O)[C@H](C)NC(=O)[C@H](Cc2c[nH]c3ccccc23)NC(=O)[C@H](Cc2ccc(O)cc2)NC(=O)[C@H](CCC(=O)O)NC1=O)[C@@H](C)O (single isomer, unassigned) [compound 571]
EC50 (SJSA-1): < 5 µM

CC(=O)N[C@@H](CC(C)C)C(=O)N[C@H](C(=O)N[C@@H](Cc1ccccc1)C(=O)N[C@]1(C)CCCCCCC=CCCC[C@@](C)(C(=O)N[C@@H](CO)C(=O)N[C@@H](C)C(=O)N[C@@H](Cc2ccccc2)C(N)=O)NC(=O)[C@H](CC(C)C)NC(=O)[C@H](CCC(N)=O)NC(=O)[C@H](C)NC(=O)[C@H](Cc2c[nH]c3ccccc23)NC(=O)[C@H](Cc2ccc(O)cc2)NC(=O)[C@H](C)NC1=O)[C@@H](C)O [compound 7] (Ac-LTF[R8]AYWAQL[S5]SAF-NH2; staple 4-11)
6.25 μM % Lysed cells (1 h LDH) (SJSA-1 cells): 0% | 25 μM % Lysed cells (1 h LDH) (SJSA-1 cells): 0% | 50 μM % Lysed cells (1 h LDH) (SJSA-1 cells): 0% | % Helix 50% TFE compared to 50% TFE parent (CD) [1]: 137.3% | Molar Ellipticity TFE − Molar Ellipticity Benign [1]: −20045.4 deg cm^2 dmol^−1 | Molar Ellipticity 50% TFE (222 in 50% TFE) [1]: −19921.4 deg cm^2 dmol^−1 | Molar Ellipticity Benign (222 in 0% TFE) [1]: 124 deg cm^2 dmol^−1 | % Helix benign compared to 50% TFE parent (CD) [1]: −0.9% | EC50 (RKO): < 5 µM | caspase 0.3 μM (Caspase 3): 0.93 | caspase 1 μM (Caspase 3): 1.4 | caspase 3 μM (Caspase 3): 5.08 | caspase 10 μM (Caspase 3): 21.7 | caspase 30 μM (Caspase 3): 23.96

CC(=O)N[C@@H](CC(C)C)C(=O)N[C@H](C(=O)N[C@@H](Cc1ccccc1)C(=O)N[C@]1(C)CCCCCCC=CCCC[C@@](C)(C(=O)N[C@@H](CO)C(=O)N[C@@H](C)C(=O)N[C@@H](C)C(N)=O)NC(=O)[C@H](CC(C)C)NC(=O)[C@H](CCC(N)=O)NC(=O)[C@H](C)NC(=O)[C@H](Cc2c[nH]c3ccccc23)NC(=O)[C@H](Cc2ccc(O)cc2)NC(=O)[C@H](C)NC1=O)[C@@H](C)O [compound 11] (Ac-LTF[R8]AYWAQL[S5]SAA-NH2; staple 4-11)
6.25 μM % Lysed cells (1 h LDH) (SJSA-1 cells): −2% | 25 μM % Lysed cells (1 h LDH) (SJSA-1 cells): 2% | 50 μM % Lysed cells (1 h LDH) (SJSA-1 cells): 3% | % Helix 50% TFE compared to 50% TFE parent (CD) [1]: 106.1% | Molar Ellipticity TFE − Molar Ellipticity Benign [1]: 16225.2 deg cm^2 dmol^−1 | Molar Ellipticity 50% TFE (222 in 50% TFE) [1]: −16623.4 deg cm^2 dmol^−1 | Molar Ellipticity Benign (222 in 0% TFE) [1]: −398.2 deg cm^2 dmol^−1 | % Helix benign compared to 50% TFE parent (CD) [1]: 2.5% | EC50 (RKO): < 5 µM | caspase 0.3 μM (Caspase 3): 1 | caspase 3 μM (Caspase 3): 5 | caspase 10 μM (Caspase 3): 23 | caspase 30 μM (Caspase 3): 33.5

CC(=O)N[C@@H](CC(C)C)C(=O)N[C@H](C(=O)N[C@@H](Cc1ccccc1)C(=O)N[C@]1(C)CCCCCCC=CCCC[C@@](C)(C(=O)N[C@@H](C)C(=O)N[C@@H](C)C(=O)N[C@@H](C)C(=O)N[C@@H](C)C(=O)N[C@H](C)C(N)=O)NC(=O)[C@H](CC(C)C)NC(=O)[C@H](CCC(N)=O)NC(=O)[C@H](C)NC(=O)[C@H](Cc2c[nH]c3ccccc23)NC(=O)[C@H](Cc2ccc(O)cc2)NC(=O)[C@H](C)NC1=O)[C@@H](C)O [compound 233]
6.25 μM % Lysed cells (1 h LDH) (SJSA-1 cells): 2.5% | 25 μM % Lysed cells (1 h LDH) (SJSA-1 cells): 3.5% | 50 μM % Lysed cells (1 h LDH) (SJSA-1 cells): 6% | % Helix 50% TFE compared to 50% TFE parent (CD) [1]: 131.2% | Molar Ellipticity TFE − Molar Ellipticity Benign [1]: −18554.7 deg cm^2 dmol^−1 | Molar Ellipticity 50% TFE (222 in 50% TFE) [1]: −19032.6 deg cm^2 dmol^−1 | Molar Ellipticity Benign (222 in 0% TFE) [1]: −477.9 deg cm^2 dmol^−1 | % Helix benign compared to 50% TFE parent (CD) [1]: 3.3% | caspase 0.3 μM (Caspase 3): 6 | caspase 1 μM (Caspase 3): 8 | caspase 3 μM (Caspase 3): 17 | caspase 10 μM (Caspase 3): 22 | caspase 30 μM (Caspase 3): 23
